According to BigSolDB 2.1:

Clc1ccc2c(c1)Nc1ccccc1S2
solubility (mole fraction)
Details	in 2-butanone	in acetone	in acetonitrile	in ethanol	in ethyl acetate	in isopropanol	in methanol	in n-butanol	in n-propanol
283.15 K	0.0337	0.0268	0.00354	0.00431	0.0156	0.0038	0.00465	0.00328	0.0041
285.65 K	0.0356	0.0281	0.00378	0.00446	0.0173	0.00397	0.00483	0.00344	0.00426
288.15 K	0.0378	0.03	0.00406	0.00465	0.0194	0.00415	0.00502	0.00361	0.00446
290.65 K	0.0402	0.0317	0.00435	0.00486	0.0216	0.00433	0.00525	0.00381	0.00466
293.15 K	0.0427	0.0336	0.00467	0.00505	0.024	0.00454	0.00545	0.00401	0.00487
295.65 K	0.0455	0.0356	0.00498	0.00525	0.0265	0.00473	0.0057	0.00422	0.00509
298.15 K	0.0484	0.0378	0.00532	0.00546	0.0291	0.00493	0.00594	0.00445	0.0053
300.65 K	0.0513	0.0399	0.00564	0.00569	0.0323	0.00513	0.0062	0.00468	0.00552
303.15 K	0.0546	0.0421	0.006	0.00592	0.0357	0.00536	0.00647	0.00492	0.00575
305.65 K	0.0578	0.0443	0.00633	0.00617	0.0397	0.00556	0.00673	0.00518	0.006
308.15 K	0.0612	0.0469	0.00672	0.00641	0.0435	0.0058	0.00701	0.00543	0.00622
310.65 K	0.0646	0.0493	0.0071	0.00667	0.0484	0.00605	0.00728	0.0057	0.00649
313.15 K	0.0683	0.0518	0.00756	0.00695	0.0528	0.0063	0.00758	0.00596	0.00678
315.65 K	0.0727	0.0544	0.00795	0.00723	0.0575	0.00657	0.00786	0.00624	0.00705
318.15 K	0.0771	0.0575	0.00837	0.00756	0.0625	0.00687	0.00819	0.00653	0.00737
